Data set [1] has as its system U2OS cells. Put plainly: Cell-cycle distribution by flow cytometry. It is filed as cell-based, human. Conditions: for cell-cycle distribution after IR exposure: 24 h post-irradiation. (Flow cytometry measures light scatter and fluorescence of single cells or particles in a stream.)
Method: To test this possibility, U2OS cells were pre-treated with S or AS oligonucleotides, exposed to IR, and cell-cycle distributions at 24 h post-irradiation were determined.
Data set [2] has as its system ATX. As to the kind of experiment: ATX protein level in oligonucleotide-treated cells (immunoblot). It is filed as cell-based, human. Conditions: U2OS. On the technique in general: A western blot detects proteins with antibodies after separation by electrophoresis.
For a further data set, the system named is p53. Put plainly: p53 Ser-15 phosphorylation and p53 accumulation (immunoblot). It is filed as cell-based, human. The text has this:
A major mediator of stress-induced signaling in mammalian cells is the tumor suppressor protein, p53 (Ko and Prives, Genes and Development 10:1054-1072, (1996); Ryan et al., Curr. Opin. Cell Biol. 13:332-337 (2001)). ATX phosphorylates p53 on Ser-15 (FIG. 1C), a site implicated in the regulation of p53 stability and transcriptional activity (Dumaz and Meek, Curr. Opin. Cell Biol. 13:225-231 (1999); Zhang and Xiong, Science 292:1910-1915 (2001)). Therefore, the possibility that these two proteins are functionally linked during cellular stress responses was investigated. U2OS cells were transiently transfected with a HA-ATXWT or HA-ATXKI expression plasmid, together with a GFP-encoding plasmid to allow for FACS-based enrichment of the transfected cells. The GFP+ cells were then examined for IR-induced stabilization of p53, as well as for specific phosphorylation of this protein on Ser-15. […] In contrast, overexpression of ATXWT enhanced both of these responses in cells exposed to IR.
The recognition of UV light-induced DNA damage occurs primarily during S phase, when pyrimidine dimers and other bulky lesions interfere with replication fork progression (Friedberg, DNA Repair and Mutagenesis (Washington, D.C., ASM Press) (1995); Lindahl and Wood, Cell 103:1121-1131 (1999)).
In order to further define the potential linkage between DNA replicational stress and ATX, the response of AS-treated cells to 5-fluorouracil (5-FU), an S-phase specific cytotoxic agent was examined (Danenberg et al., Seminars in Oncology. 26:621-631 (1999); Grem, Investigational New Drugs 18:299-313 (2000)).
Changes in phosphorylation at Ser-15 are typically accompanied by alterations in the expression of the p53 protein, which complicates the interpretation of results obtained by immunoblotting of whole cell extracts with phospho-Ser-15-specific antibodies. In order to confirm that reduced ATX expression interferes with stress-induced Ser-15 phosphorylation, U2OS cells were transfected with either the S or AS oligonucleotide, and then were pretreated with the proteasome inhibitor, LLnV, to stabilize p53. In the presence of LLnV, the p53 level in each test population was relatively unaffected by UV exposure (data not shown). However, the ratio of phospho-Ser-15 to total p53 protein was increased by UV irradiation of both the mock-transfected and S oligonucleotide-treated cells.

The next data set has as its system hChk2. Put plainly: IR-dependent phosphorylation of hChk2 (immunoblot). It is filed as cell-based, human. Conditions: U2OS. The text has this:
Recent findings point toward ATM as a critical upstream regulator of the activity of the checkpoint kinase, hChk2, in IR-damaged cells (Ahn et al., Cancer Res. 60:5934-5936 (2000); Melchionna et al., Nat. Cell Biol. 2:762-765 (2000)). To determine whether ATX was also involved in hChk2 activation, the effect of AS oligonucleotide treatment on the IR-dependent phosphorylation of hChk2 was examined. […] Moreover, the differential effects of AS treatment on p53 expression versus hChk2 activation argue against the possibility that AS exposure leads to nonspecific inhibition of checkpoint signaling responses to IR-induced DNA damage.

Data set [3] has as its system U2OS cells. Put plainly: Clonogenic survival assay of oligonucleotide-transfected cells. It is filed as cell-based, human. Conditions: for reduction of basal level of colony outgrowth (basal clonogenic activity): non-irradiated, 10 days in culture.
The target of data set [4] is T1, ATX (Homo sapiens, UniProt Q96Q15).
T1 construct: expressed in transfected cells; host or cells: HEK 293T, pcDNA3.1, immunoprecipitated with anti-HA antibody
As to the kind of experiment: Immune complex kinase assay, immunoprecipitated HA-ATXWT, GST-p53 1-70 substrate. It is filed as biochemical. Conditions: pretreatment of immunoprecipitated HA-ATXWT; GST-p53 1-70 phosphorylation; read-out: drug concentration required for 50% inhibition (IC50) of ATX activity in vitro.

T1 sequence (Q96Q15 141-3661 S144C): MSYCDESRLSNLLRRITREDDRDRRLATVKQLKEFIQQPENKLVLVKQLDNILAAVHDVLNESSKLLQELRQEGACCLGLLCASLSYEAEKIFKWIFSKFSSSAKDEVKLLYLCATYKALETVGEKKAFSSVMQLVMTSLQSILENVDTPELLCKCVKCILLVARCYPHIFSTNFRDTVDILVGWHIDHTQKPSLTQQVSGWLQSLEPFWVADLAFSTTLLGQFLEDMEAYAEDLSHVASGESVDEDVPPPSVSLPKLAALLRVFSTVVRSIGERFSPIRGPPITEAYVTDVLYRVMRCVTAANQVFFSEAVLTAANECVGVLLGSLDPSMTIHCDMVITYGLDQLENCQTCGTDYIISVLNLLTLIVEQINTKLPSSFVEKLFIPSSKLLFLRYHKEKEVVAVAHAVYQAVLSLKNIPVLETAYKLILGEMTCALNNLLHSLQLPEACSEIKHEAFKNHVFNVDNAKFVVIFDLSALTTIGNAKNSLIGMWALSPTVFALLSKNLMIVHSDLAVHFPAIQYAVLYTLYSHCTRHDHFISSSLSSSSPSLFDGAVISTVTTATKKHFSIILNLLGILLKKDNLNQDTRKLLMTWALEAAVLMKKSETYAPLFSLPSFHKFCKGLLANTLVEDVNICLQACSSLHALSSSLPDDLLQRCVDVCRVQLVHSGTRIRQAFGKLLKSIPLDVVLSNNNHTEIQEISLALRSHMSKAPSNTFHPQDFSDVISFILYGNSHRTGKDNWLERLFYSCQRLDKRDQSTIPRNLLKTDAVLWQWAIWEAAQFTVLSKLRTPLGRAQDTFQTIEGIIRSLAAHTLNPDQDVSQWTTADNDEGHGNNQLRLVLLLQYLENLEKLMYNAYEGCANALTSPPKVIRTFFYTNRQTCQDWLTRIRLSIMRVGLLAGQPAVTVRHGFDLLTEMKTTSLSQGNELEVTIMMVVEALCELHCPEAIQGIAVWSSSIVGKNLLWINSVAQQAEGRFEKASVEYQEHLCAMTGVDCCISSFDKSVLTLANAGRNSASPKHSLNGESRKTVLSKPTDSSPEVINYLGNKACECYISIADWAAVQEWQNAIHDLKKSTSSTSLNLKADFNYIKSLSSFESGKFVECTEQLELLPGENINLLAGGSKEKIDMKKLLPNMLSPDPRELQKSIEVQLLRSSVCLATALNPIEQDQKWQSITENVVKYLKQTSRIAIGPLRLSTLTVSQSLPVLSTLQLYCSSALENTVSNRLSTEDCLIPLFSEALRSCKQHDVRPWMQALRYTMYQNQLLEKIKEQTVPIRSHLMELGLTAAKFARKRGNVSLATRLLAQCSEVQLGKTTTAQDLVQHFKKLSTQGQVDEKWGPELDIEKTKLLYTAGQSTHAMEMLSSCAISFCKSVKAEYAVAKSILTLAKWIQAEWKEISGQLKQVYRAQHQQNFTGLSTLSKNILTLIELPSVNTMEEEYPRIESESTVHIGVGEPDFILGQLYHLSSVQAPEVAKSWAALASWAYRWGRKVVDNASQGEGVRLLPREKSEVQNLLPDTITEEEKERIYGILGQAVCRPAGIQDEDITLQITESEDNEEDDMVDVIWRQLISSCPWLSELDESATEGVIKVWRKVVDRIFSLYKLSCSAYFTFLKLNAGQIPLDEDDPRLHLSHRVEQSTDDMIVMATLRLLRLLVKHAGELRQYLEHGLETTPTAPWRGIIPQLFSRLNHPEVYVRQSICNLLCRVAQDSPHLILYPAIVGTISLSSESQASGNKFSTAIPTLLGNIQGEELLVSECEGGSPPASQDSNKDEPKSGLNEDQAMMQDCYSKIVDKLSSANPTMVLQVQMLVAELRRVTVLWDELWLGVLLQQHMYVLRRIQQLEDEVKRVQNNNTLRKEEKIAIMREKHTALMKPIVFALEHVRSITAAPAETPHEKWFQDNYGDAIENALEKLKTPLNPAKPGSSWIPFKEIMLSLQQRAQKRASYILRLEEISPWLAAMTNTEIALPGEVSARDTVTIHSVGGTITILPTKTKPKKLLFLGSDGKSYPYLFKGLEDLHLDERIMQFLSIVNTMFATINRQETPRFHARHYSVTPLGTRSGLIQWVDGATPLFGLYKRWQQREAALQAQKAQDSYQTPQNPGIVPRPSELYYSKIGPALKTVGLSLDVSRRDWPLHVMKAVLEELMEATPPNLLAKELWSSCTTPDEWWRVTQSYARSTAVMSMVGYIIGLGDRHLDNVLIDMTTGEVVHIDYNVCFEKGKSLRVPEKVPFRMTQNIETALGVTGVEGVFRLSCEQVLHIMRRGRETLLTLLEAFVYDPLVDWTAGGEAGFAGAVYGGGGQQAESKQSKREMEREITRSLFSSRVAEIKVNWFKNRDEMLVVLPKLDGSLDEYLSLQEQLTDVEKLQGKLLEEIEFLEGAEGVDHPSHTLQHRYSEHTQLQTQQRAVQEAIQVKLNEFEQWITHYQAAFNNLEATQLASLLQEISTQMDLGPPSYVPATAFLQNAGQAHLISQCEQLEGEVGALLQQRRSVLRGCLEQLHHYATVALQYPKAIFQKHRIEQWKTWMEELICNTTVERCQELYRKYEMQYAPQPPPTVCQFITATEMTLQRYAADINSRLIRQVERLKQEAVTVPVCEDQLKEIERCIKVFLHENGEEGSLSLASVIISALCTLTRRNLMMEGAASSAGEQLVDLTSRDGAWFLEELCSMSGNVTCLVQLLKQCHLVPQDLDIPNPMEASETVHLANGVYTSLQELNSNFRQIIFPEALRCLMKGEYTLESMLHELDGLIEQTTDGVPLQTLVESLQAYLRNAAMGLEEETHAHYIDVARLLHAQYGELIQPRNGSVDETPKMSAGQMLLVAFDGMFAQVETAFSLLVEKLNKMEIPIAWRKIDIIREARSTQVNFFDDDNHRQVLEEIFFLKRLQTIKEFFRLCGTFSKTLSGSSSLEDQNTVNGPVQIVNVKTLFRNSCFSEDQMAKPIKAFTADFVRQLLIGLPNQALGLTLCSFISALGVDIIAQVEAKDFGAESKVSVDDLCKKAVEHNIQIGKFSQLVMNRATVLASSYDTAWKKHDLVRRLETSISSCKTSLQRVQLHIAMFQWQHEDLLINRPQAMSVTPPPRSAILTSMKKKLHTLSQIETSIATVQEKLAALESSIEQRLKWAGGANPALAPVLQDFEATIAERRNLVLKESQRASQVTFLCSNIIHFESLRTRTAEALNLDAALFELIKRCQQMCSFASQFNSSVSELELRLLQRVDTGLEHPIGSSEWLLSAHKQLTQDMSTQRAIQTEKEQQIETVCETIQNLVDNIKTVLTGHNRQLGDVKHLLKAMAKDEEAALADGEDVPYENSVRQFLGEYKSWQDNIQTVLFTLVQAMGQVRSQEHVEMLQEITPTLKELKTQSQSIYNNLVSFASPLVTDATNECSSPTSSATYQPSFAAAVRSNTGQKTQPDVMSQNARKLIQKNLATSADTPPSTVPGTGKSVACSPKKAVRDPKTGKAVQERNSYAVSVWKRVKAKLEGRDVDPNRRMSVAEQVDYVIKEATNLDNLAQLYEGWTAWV

Consider “5′-AGCAAGCTCCCTCCTGTCTC-3′ (phosphorothioate backbone, further chemistry not given here) [AS oligonucleotide, antisense phosphorothioate oligonucleotide complementary to ATX nucleotides 210-229]”, for which the “cell-cycle distribution after IR exposure” value in the data set on U2OS cells [1] is “arrested primarily in G2/M phase”. For the same compound, the “cell-cycle distribution in the absence of IR” value with U2OS cells [1] (compared to S oligonucleotide-treated cells) is “reduction in the percentage of G1 phase cells, and a concomitant accumulation of G2/M phase cells”. Besides, the “expression levels of control proteins ATM and PLC-γ1” value in the data set on ATX [2] (immunoblot) is given as “no significant change”. Moreover, the “reduction in ATX protein” value in the data set with ATX [2] (over 10 independent trials) is 50-90%. In addition, the “level of p53 induction by 5-FU” value with p53 (AS-treated U2OS versus S-treated) is recorded as “identical to that observed in their S-treated counterparts”. Moreover, the “stoichiometric increase in Ser-15 phosphorylation triggered by UV-induced stress” value in the data set with p53 (U2OS pretreated with proteasome inhibitor LLnV) was “effectively blocked”. Further, in the data set with p53 (U2OS, IR), the “phosphorylation and stabilization of p53 induced by IR exposure” value was “reduced both the phosphorylation and stabilization of p53”. For the same compound, the “Ser-15 phosphorylation and p53 protein accumulation in UV-damaged cells” value in the data set on p53 (U2OS, UV) is listed as “severely impaired”. Besides, in the data set on hChk2, the “IR-dependent phosphorylation of hChk2” value is “retained the ability to phosphorylate hChk2”. In addition, the “sensitivity to suppressive effects of IR and UV on clonogenic survival” value with U2OS cells [3] (IR (FIG. 2C) and UV) is recorded as “significantly more sensitive”. Further, the “reduction of basal level of colony outgrowth (basal clonogenic activity)” value with U2OS cells [3] is 75%.
“5′-GAGACAGGAGGGAGCTTGCT-3′ (all phosphorothioate, sugars by position and methylation of C not given here) [S oligonucleotide, reference compound]”: the “cell-cycle distribution after IR exposure” value in the data set with U2OS cells [1] is “accumulated in both G1 and G2/M phases”. For the same compound, in the data set with U2OS cells [3], the “reduction of basal level of colony outgrowth (basal clonogenic activity)” value is listed as 25%.
Consider `O=c1[nH]cc(F)c(=O)[nH]1` [5-FU, 5-fluorouracil, reference compound], for which, in the data set with p53 (U2OS treated with the drug), the “p53 Ser-15 phosphorylation” value is given as “not accompanied by an increase in Ser-15 phosphorylation” and the p53 expression entry is “increased p53 expression to levels similar to those observed in UV-irradiated cells”.
For `COC[C@H]1OC(=O)c2coc3c2[C@@]1(C)C1=C(C3=O)[C@@H]2CCC(=O)[C@@]2(C)C[C@H]1OC(C)=O` [wortmannin], at ATX [4], the IC50 fell in the range of 10 to 100 nM.

The values above are taken from US7537911B2, “ATM related kinase, ATX, nucleic acids encoding same and methods of use” (Burnham Institute for Medical Research, priority 2002, dated 2009).
